These results are taken from US20060100290A1, “Treatment of allergic rhinitis and asthma” (priority 2003, published 2006).

Where only a bound is given, the exact number is not on record here.

The subject of the test is allergic rhinitis and asthma. Put plainly: Treatment of human patients with allergic rhinitis and/or asthma with daily atomoxetine (case reports, Examples 1-4). In kind it is in vivo, humans. As for the experimental part: A person with a 24 year history of severe allergic rhinitis, immunotherapy failure, and a 10 year history of moderate persistent asthma was given a 100 mg daily dose of atomoxetine. […]
Here, as is known in the art, FEV1 percent is the ratio of FEV1 to the predicted FEV1, which is obtained from standardized tables based on age, weight, height, and sex; FEV1 is the volume of air that is forcefully exhaled from the lungs in one second.

The mark [1] stands for this setting: Example 3: person, allergic rhinitis, 80 mg daily dose.

Consider `CNCC[C@@H](Oc1ccccc1C)c1ccccc1.Cl` [atomoxetine, (R)-(−)-N-methyl-3-(2-methylphenoxy)-3-phenylpropylamine], for which the “symptom status on atomoxetine mono therapy” value was “remained symptom free during the entire period of monitoring” (Example 1: person, 60 mg daily dose, monitored during the following year) and “remained symptom free during the entire period of monitoring” (Example 2: person, 100 mg daily dose, monitored during the following 10 months). The “time until able to wean all traditional allergic rhinitis and asthma treatments” value by setting is: (Example 1: person, allergic rhinitis and moderate persistent asthma, 60 mg daily dose) “three”; (Example 2: person, severe allergic rhinitis and moderate persistent asthma, 100 mg daily dose) not above 10 days; (Example 4: person, allergic rhinitis and moderate persistent asthma, 80 mg daily dose) not above 10 days. Also, the “time remained symptom free with atomoxetine mono therapy” value is recorded as “at least nine” under setting [1] and “at least 7 months” (Example 4: person, 80 mg daily dose). Also, under setting [1], the “time until able to wean all traditional allergic rhinitis treatments” value is on record as not above 7 days. For the same compound, the “FEV1 percent (ratio of FEV1 to predicted FEV1), pulmonary function test” value (Example 4: person, 80 mg daily dose, after 6 weeks of atomoxetine mono therapy, 68% on traditional treatments before) is 93%.
